The Ki is a dissociation constant, usually derived from enzyme kinetics or from competition with a known ligand.

The test deals with Bifunctional protein GlmU (Escherichia coli (strain K12), UniProt P0ACC7). Nature of the test: Competitive inhibition of Acetyltransferase activity of Escherichia coli BL21(DE3) GlmU in presence of AcCoA.
Sequence of Bifunctional protein GlmU (P0ACC7 whole entry): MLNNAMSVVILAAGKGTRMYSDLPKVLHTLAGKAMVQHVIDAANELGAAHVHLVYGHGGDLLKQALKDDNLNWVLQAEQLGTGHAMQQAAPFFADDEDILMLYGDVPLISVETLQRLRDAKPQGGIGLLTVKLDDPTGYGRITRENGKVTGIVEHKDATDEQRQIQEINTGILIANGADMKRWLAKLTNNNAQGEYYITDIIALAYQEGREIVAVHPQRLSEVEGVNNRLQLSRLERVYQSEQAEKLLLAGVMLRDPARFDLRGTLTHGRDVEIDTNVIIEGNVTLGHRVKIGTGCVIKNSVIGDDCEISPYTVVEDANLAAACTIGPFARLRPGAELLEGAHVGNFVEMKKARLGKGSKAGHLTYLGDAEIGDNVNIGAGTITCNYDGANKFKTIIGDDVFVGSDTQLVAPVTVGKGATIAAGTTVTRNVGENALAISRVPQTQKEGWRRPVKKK

`Nc1ccc(Nc2ccc(N)cc2S(=O)(=O)O)cc1` [5-amino-2-(4-aminophenylamino)benzenesulfonic acid]: the Ki is 0.017 µM. Consider `O=S(=O)(Nc1ccc(S(=O)(=O)c2ccc(-c3ccc(S(=O)(=O)c4ccc(NS(=O)(=O)c5ccc(Cl)cc5)c(Cl)c4)cc3)cc2)cc1Cl)c1ccc(Cl)cc1` [Mac0008028], for which the Ki was 0.404 µM. Regarding `O=C(CSc1nnc(SCC(=O)NCCSCc2ccco2)s1)NCCSCc1ccco1` [Mac0029665], the Ki worked out at 0.023 µM.

(Values after BindingDB's records for doi:10.1128/AAC.01572-08 (Mcmaster University, 2009).)
